Among the data in patent publication US12240862B2, “Inhibitors of peptidylarginine deiminases” (Gilead Sciences, Inc., priority 2020, dated 2025) are IC50 values, retold here.

For orientation: pIC50 means the IC50 on a negative log10 scale, so that one unit is a factor of ten.

pIC50: −log10 of the molar value.

The target of this assay is T1, human PAD4 (Homo sapiens, UniProt Q9UM07).
T1 construct: human PAD4 (NM_012387), A2P663, was PCR amplified; His-SUMO (N, cleaved yes); made in house; host or cells: E. coli BL21(DE3)
T1 sequence (Q9UM07 2-663): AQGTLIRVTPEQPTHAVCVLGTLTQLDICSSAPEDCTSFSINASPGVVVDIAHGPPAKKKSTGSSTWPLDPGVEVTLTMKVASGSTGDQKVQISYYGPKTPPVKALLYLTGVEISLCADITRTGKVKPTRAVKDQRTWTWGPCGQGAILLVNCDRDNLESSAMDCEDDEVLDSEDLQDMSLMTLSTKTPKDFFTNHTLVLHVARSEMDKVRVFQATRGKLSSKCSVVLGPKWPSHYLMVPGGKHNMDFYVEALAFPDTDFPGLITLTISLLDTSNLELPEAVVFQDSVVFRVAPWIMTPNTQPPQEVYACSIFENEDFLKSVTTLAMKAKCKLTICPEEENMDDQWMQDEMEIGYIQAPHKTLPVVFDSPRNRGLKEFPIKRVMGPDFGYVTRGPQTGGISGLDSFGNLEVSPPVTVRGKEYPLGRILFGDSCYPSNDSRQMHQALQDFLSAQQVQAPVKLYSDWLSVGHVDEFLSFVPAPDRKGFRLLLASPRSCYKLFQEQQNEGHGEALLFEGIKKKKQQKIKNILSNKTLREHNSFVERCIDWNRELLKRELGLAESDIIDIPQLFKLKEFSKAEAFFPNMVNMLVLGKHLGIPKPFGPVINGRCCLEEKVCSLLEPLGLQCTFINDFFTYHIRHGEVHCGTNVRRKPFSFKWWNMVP
As to the kind of experiment: In vitro PAD4 BAEE biochemical assay. The following applies: human PAD4, BAEE substrate; 5 nM PAD4, 2 mM calcium chloride, 3 mM BAEE; geometric mean of multiple experiments. A digest of the protocol: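 Ammonia generated from BAEE serves as the readout, measured by o-phthalaldehyde after EDTA termination. Final conditions: 5 nM human PAD4 (SUMO tag cleaved), 2 mM CaCl2, 3 mM BAEE, pH 7.6 MOPS buffer, 25 °C for 2 h following a 30-min compound preincubation.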
Take `COc1cc(C(=O)N2[C@H]3CC[C@@H]2[C@H](N)C3)cc2nc(-c3cc4ccc(N5CCOCS5(=O)=O)nc4n3CC3CC3)c(C)n12` [Example 458, [(1~{R},2~{R},4~{S})-2-amino-7-azabicyclo [2.2.1]heptan-7-yl]-[2-[1-(cyclopropylmethyl)-6-(3,3-dioxo-1,3,4-oxathiazinan-4-yl)pyrrolo [2,3-b]pyridin-2-yl]-5-methoxy-3-methylimidazo[1,2-a]pyridin-7-yl]methanone]: the pIC50 is 7.28. For the compound `[2H]C([2H])([2H])OC(=O)N[C@H](C)c1ccc2cc(-c3nc4cc(C(=O)N5[C@H]6CC[C@@H]5[C@H](N)C6)cc(OC)n4c3C)n(CC3CC3)c2n1` [Example 164, trideuteriomethyl~{N}-[(1~{R})-1-[2-[7-[(1~{R},2~{R},4~{S})-2-amino-7-azabicyclo[2.2.1]heptane-7-carbonyl]-5-methoxy-3-methylimidazo[1,2-a]pyridin-2-yl]-1-(cyclopropylmethyl)pyrrolo [2,3-b]pyridin-6-yl]ethyl] carbamate], the pIC50 was 7.10. With `COc1cc(C(=O)N2C[C@H](N)CC[C@@H]2C)cc2nc(-c3cc4ccc(-c5c(C)nn(CC(N)=O)c5C)nc4n3CC3CC3)c(C)n12` [Example 609, 2-[4-[2-[7-[(2~{S}, 5~{R})-5-amino-2-methylpiperidine-1-carbonyl]-5-methoxy-3-methylimidazo [1,2-a]pyridin-2-yl]-1-(cyclopropylmethyl)pyrrolo [2,3-b]pyridin-6-yl]-3,5-dimethylpyrazol-1-yl]acetamide] the figure was 6.15; with `Cc1c(-c2cc3ccc(N(C(F)F)S(C)(=O)=O)nc3n2CC2CC2)nc2cc(C(=O)N3[C@@H]4CC[C@@H](N)[C@H]3CC4)ccn12` [Example 401, ~{N}-[2-[7-[(1~{R},2~{R}, 5~{R})-2-amino-8-azabicyclo[3.2.1]octane-8-carbonyl]-3-methylimidazo [1,2-a]pyridin-2-yl]-1-(cyclopropylmethyl)pyrrolo [2,3-b]pyridin-6-yl]-~{N}-(difluoromethyl) methanesulfonamide], 6.87; with `COc1cc(C(=O)N2CCC[C@@H](N)C2)cc2nc(-c3cc4ccc([C@@H](C)NC(=O)C5(CO)CC5)nc4n3CC3CC3)c(C)n12` [Example 129, ~{N}-[(1~{R})-1-[2-[7-[(3~{R})-3-aminopiperidine-1-carbonyl]-5-methoxy-3-methylimidazo [1,2-a]pyridin-2-yl]-1-(cyclopropylmethyl)pyrrolo [2,3-b]pyridin-6-yl]ethyl]-1-(hydroxymethyl) cyclopropane-1-carboxamide], 7.25. For `COc1cc(C(=O)N2[C@H]3CC[C@@H]2[C@H](N)C3)cc2nc(-c3cc4ccc([C@@H](C)NC(=O)C5(CO)CC5)nc4n3CC3CC3)c(C)n12` [Example 128, ~{N}-[(1~{R})-1-[2-[7-[(1~{R},2~{R},4~{S})-2-amino-7-azabicyclo[2.2.1]heptane-7-carbonyl]-5-methoxy-3-methylimidazo [1,2-a]pyridin-2-yl]-1-(cyclopropylmethyl)pyrrolo [2,3-b]pyridin-6-yl]ethyl]-1-(hydroxymethyl) cyclopropane-1-carboxamide], the pIC50 is 7.45. For `COc1cc(C(=O)N2[C@H]3CC[C@@H]2[C@H](N)C3)cc2nc(-c3cc4ccc([C@@H](C)NC(=O)CCN5C(=O)NC(C)(C)C5=O)nc4n3CC3CC3)c(C)n12` [Example 148, ~{N}-[(1~{R})-1-[2-[7-[(1~{R},2~{R},4~{S})-2-amino-7-azabicyclo[2.2.1]heptane-7-carbonyl]-5-methoxy-3-methylimidazo [1,2-a]pyridin-2-yl]-1-(cyclopropylmethyl)pyrrolo [2,3-b]pyridin-6-yl]ethyl]-3-(4,4-dimethyl-2,5-dioxoimidazolidin-1-yl)propenamide], the pIC50 is 7.25.
